One molecule from US20120196854A1, “PHARMACEUTICAL COMPOSITION COMPRISING AROMATIC HETEROCYCLIC COMPOUND” (Kyowa Hakko Kirin Co., Ltd., priority 2009, published 2012) can be followed below.

The assay deals with mouse model of asthma. Kind of assay: Airway hyperresponsiveness and eosinophil infiltration in the airway in a mouse model of asthma. Format: in vivo. As to conditions: 3 mg/kg orally once daily during antigen exposure, OVA-sensitized BALB/c mice. On the procedure: The mouse model of asthma was prepared as follows. For experimental use, 6-week-old male BALB/c mice were purchased from Charles River Japan (Atsugi, Kanagawa). Equal amounts of a 0.5 mg/mL solution of ovalbumin in physiological saline and a 10 mg/mL suspension of aluminum hydroxide in physiological saline were mixed to give a sensitizing fluid. With well mixing of the sensitization fluid, 0.2 mL of the fluid was intraperitoneally administered to each mouse for sensitization. About 1 week after the initial sensitization, the same procedure was performed for additional sensitization. […]
The expression of airway hyperresponsiveness (increase of airway reactivity) was evaluated by measuring, under anesthesia, airway reactivity to methacholine (MCh: acetyl-β-methylcholine chloride, Cat. No. A-2251, Sigma-Aldrich) using a respiratory function analyzer [BioSystem XA; version 2.0.2.21 for Windows (registered trademark), preamplifier: MAX2215, body plethysmography box: PLY3011, pressure transducer: Validyne DP45-28, flaw transducer: Validyne DP45-14, Buxco Electronics, Troy, N.Y., USA]. […] As an indicator of airway reactivity, respiratory resistance (RL) values recorded every 5 seconds by the respiratory function analyzer were used. After fixing a mouse to the device and confirming the RL stability, the value after intravenous administration of a physiological saline solution was recorded first. […]

`O=C(O)c1cc(-c2ccco2)nc2ccc3nn(-c4ccccc4)nc3c12` [Compound 133, 7-(furan-2-yl)-2-phenyl-2H-[1,2,3]triazolo[4,5-f]quinoline-9-carboxylic acid]: the “inhibition of the expression of airway hyperresponsiveness” value stood at 98%. Also, the “inhibition of eosinophil infiltration in the airway” value (BAL fluid) was 55%.
